Drawing on ChEMBL document CHEMBL1949543, “Synthesis and evaluation of novel monosubstituted sulfonylurea derivatives as antituberculosis agents” (Eur J Med Chem, 2012), this text covers MIC for two molecules.

Converted amounts (≈) assume the structure as drawn.

This assay deals with Mycobacterium tuberculosis variant bovis. The assay is described as follows: Antituberculosis activity against Mycobacterium bovis ATCC 25523. It counts as functional.

What is called MIC is the least concentration at which growth counts as inhibited. `COc1ccnc(NC(=O)NS(=O)(=O)c2cc(NC(=O)CCl)ccc2Cl)n1` showed an MIC of 10 µg/mL (≈ 23 µM).

On to `Cc1ccnc(NC(=O)NS(=O)(=O)c2cc(NC(=O)CCl)ccc2Cl)n1`, for which the MIC is 10 µg/mL (≈ 23.9 µM).
